Measured values taken from patent US10343992B2, “1-cyano-pyrrolidine compounds as USP30 inhibitors” (MISSION THERAPEUTICS LIMITED, priority 2015, dated 2019).

Biological target: USP30 (Homo sapiens (Human), UniProt Q70CQ3)
Assay: USP30 biochemical FP or FI IC50 assay
Conditions: read-out: IC50 range
How it was run: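 Human USP30 preincubated 30 min at room temperature with compound (8-point series, 100 µM top final) in Tris pH 7.5, Tween 20, BSA, 5 mM β-mercaptoethanol, in duplicate. FP format: 50 nM TAMRA-peptide–isopeptide-ubiquitin substrate, ex 540/em 590. FI format: 100 nM ubiquitin-rhodamine 110, ex 487/em 535. Both read at 0 and after 2 h at room temperature.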

Chain of USP30 (Q70CQ3 57-517): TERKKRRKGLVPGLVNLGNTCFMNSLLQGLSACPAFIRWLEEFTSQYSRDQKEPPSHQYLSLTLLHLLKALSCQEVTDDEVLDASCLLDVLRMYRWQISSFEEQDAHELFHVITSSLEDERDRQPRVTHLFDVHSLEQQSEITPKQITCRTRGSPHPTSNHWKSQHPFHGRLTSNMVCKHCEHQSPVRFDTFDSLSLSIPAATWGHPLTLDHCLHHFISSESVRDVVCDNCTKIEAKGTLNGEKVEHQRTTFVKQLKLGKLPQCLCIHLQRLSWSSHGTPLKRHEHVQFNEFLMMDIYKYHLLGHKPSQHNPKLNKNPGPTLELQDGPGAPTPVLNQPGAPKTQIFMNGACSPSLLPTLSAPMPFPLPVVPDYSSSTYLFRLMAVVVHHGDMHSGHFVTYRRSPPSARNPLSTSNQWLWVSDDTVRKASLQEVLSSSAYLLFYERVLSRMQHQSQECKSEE

| SMILES | IC50 [nM] |
| --- | --- |
| N#CN1CC[C@@H](NC(=O)c2ccc(-c3ccncn3)cc2F)C1 [Example 108, (R)-N-(1-cyanopyrrolidin-3-yl)-2-fluoro-4-(pyrimidin-4-yl)benzamide] | 100 to 1000 |
| N#CN1CC[C@@H](NC(=O)c2ccc(-c3cnc4nccn4c3)cc2F)C1 [Example 109, (R)-N-(1-cyanopyrrolidin-3-yl)-2-fluoro-4-(imidazo[1,2-a]pyrimidin-6-yl)benzamide] | 100 to 1000 |
| COc1cc(-c2cnn(C)c2)ccc1C(=O)N[C@@H]1CCN(C#N)C1 [Example 110, (R)-N-(1-cyanopyrrolidin-3-yl)-2-methoxy-4-(1-methyl-1H-pyrazol-4-yl)benzamide] | 100 to 1000 |
| Cn1cc(-c2ccc(C(=O)N[C@@H]3CCN(C#N)C3)cn2)cn1 [Example 111, (R)-N-(1-cyanopyrrolidin-3-yl)-6-(1-methyl-1H-pyrazol-4-yl)nicotinamide] | 100 to 1000 |
| Cn1cc(-c2cc(F)c(C(=O)N[C@@H]3CCN(C#N)C3)c(F)c2)cn1 [Example 113, (R)-N-(1-cyanopyrrolidin-3-yl)-2,6-difluoro-4-(1-methyl-1H-pyrazol-4-yl)benzamide] | 100 to 1000 |
| Cn1cc(-c2ccc3c(C(=O)N[C@@H]4CCN(C#N)C4)cnn3c2)cn1 [Example 114, (R)-N-(1-cyanopyrrolidin-3-yl)-6-(1-methyl-1H-pyrazol-4-yl)pyrazolo[1,5-a]pyridine-3-carboxamide] | 100 to 1000 |
| COc1c(-c2cnn(C)c2)ccc(C(=O)N[C@@H]2CCN(C#N)C2)c1F [Example 115, (R)-N-(1-cyanopyrrolidin-3-yl)-2-fluoro-3-methoxy-4-(1-methyl-1H-pyrazol-4-yl)benzamide] | 100 to 1000 |
| N#Cc1cccc(-c2ccc3nc(C(=O)N[C@@H]4CCN(C#N)C4)cn3c2)c1 [Example 116, (R)-6-(3-cyanophenyl)-N-(1-cyanopyrrolidin-3-yl)imidazo[1,2-a]pyridine-2-carboxamide] | < 100 |
| N#Cc1ccc(-c2ccc3nc(C(=O)N[C@@H]4CCN(C#N)C4)cn3c2)cc1 [Example 117, (R)-6-(4-cyanophenyl)-N-(1-cyanopyrrolidin-3-yl)imidazo[1,2-a]pyridine-2-carboxamide] | 100 to 1000 |
| N#CN1CC[C@@H](NC(=O)c2ccc(-c3ccc4nccn4c3)cc2F)C1 [Example 118, (R)-N-(1-cyanopyrrolidin-3-yl)-2-fluoro-4-(imidazo[1,2-a]pyridin-6-yl)benzamide] | < 100 |
| N#CN1CC[C@@H](NC(=O)c2ccc(-c3ccnc(N4CCOCC4)c3)cc2F)C1 [Example 119, (R)-N-(1-cyanopyrrolidin-3-yl)-2-fluoro-4-(2-morpholinopyridin-4-yl)benzamide] | < 100 |
| Cn1ncc2cc(-c3cnc(C(=O)N[C@@H]4CCN(C#N)C4)c(F)c3)ccc21 [Example 120, (R)-N-(1-cyanopyrrolidin-3-yl)-3-fluoro-5-(1-methyl-1H-indazol-5-yl)picolinamide] | < 100 |
| Cn1ccc2cc(-c3cnc(C(=O)N[C@@H]4CCN(C#N)C4)c(F)c3)cnc21 [Example 121, (R)-N-(1-cyanopyrrolidin-3-yl)-3-fluoro-5-(1-methyl-1H-pyrrolo[2,3-b]pyridin-5-yl)picolinamide] | < 100 |
| Cc1nn(C)cc1-c1cnc(C(=O)N[C@@H]2CCN(C#N)C2)c(F)c1 [Example 122, (R)-N-(1-cyanopyrrolidin-3-yl)-5-(1,3-dimethyl-1H-pyrazol-4-yl)-3-fluoropicolinamide] | 100 to 1000 |
| N#CN1CC[C@@H](NC(=O)c2ncc(-c3ccc(F)cc3)cc2Cl)C1 [Example 123, (R)-3-chloro-N-(1-cyanopyrrolidin-3-yl)-5-(4-fluorophenyl)picolinamide] | < 100 |
| Cn1cc(-c2ccc3nc(C(=O)N[C@@H]4CCN(C#N)C4)cn3c2)cn1 [Example 124, (R)-N-(1-cyanopyrrolidin-3-yl)-6-(1-methyl-1H-pyrazol-4-yl)imidazo[1,2-a]pyridine-2-carboxamide] | 100 to 1000 |
| Cc1nn(C)cc1-c1ccc2nc(C(=O)N[C@@H]3CCN(C#N)C3)cn2c1 [Example 125, (R)-N-(1-cyanopyrrolidin-3-yl)-6-(1,3-dimethyl-1H-pyrazol-4-yl)imidazo[1,2-a]pyridine-2-carboxamide] | 100 to 1000 |
| Cn1cc(-c2ccc3[nH]nc(C(=O)N[C@@H]4CCN(C#N)C4)c3c2)cn1 [Example 126, (R)-N-(1-cyanopyrrolidin-3-yl)-5-(1-methyl-1H-pyrazol-4-yl)-1H-indazole-3-carboxamide] | < 100 |
| Cn1cc(-c2ccc3c(C(=O)N[C@@H]4CCN(C#N)C4)n[nH]c3c2)cn1 [Example 127, (R)-N-(1-cyanopyrrolidin-3-yl)-6-(1-methyl-1H-pyrazol-4-yl)-1H-indazole-3-carboxamide] | 100 to 1000 |
| Cc1noc(C)c1-c1ccc2cc(C(=O)N[C@@H]3CCN(C#N)C3)[nH]c2c1 [Example 128, (R)-N-(1-cyanopyrrolidin-3-yl)-6-(3,5-dimethylisoxazol-4-yl)-1H-indole-2-carboxamide] | < 100 |
| Cc1nn(C)cc1-c1ccc2cc(C(=O)N[C@@H]3CCN(C#N)C3)[nH]c2c1 [Example 129, (R)-N-(1-cyanopyrrolidin-3-yl)-6-(1,3-dimethyl-1H-pyrazol-4-yl)-1H-indole-2-carboxamide] | < 100 |

| SMILES | IC50 [nM] |
| --- | --- |
| Cn1cc(-c2ccc3[nH]c(C(=O)N[C@@H]4CCN(C#N)C4)cc3c2)cn1 [Example 130, (R)-N-(1-cyanopyrrolidin-3-yl)-5-(1-methyl-1H-pyrazol-4-yl)-1H-indole-2-carboxamide] | < 100 |
| CCn1cc(-c2cnc(C(=O)N[C@@H]3CCN(C#N)C3)cc2C)cn1 [Example 132, (R)-N-(1-cyanopyrrolidin-3-yl)-5-(1-ethyl-1H-pyrazol-4-yl)-4-methylpicolinamide] | 100 to 1000 |
| N#CN1CC[C@@H](NC(=O)N2CC(Oc3ccccc3)C2)C1 [Example 133, (R)-N-(1-cyanopyrrolidin-3-yl)-3-phenoxyazetidine-1-carboxamide] | 100 to 1000 |
| N#CN1CC[C@@H](NC(=O)N2CC(c3nc4ccccc4[nH]3)C2)C1 [Example 134, (R)-3-(1H-benzo[d]imidazol-2-yl)-N-(1-cyanopyrrolidin-3-yl)azetidine-1-carboxamide] | 100 to 1000 |
| N#CN1CC[C@@H](NC(=O)N2CCN(c3ccccc3)CC2)C1 [Example 135, (R)-N-(1-cyanopyrrolidin-3-yl)-4-phenylpiperazine-1-carboxamide] | 100 to 1000 |
| N#CN1CC[C@@H](NC(=O)N2CCOC(c3ccccc3)C2)C1 (stereo partly drawn) [Example 136, N-((R)-1-cyanopyrrolidin-3-yl)-2-phenylmorpholine-4-carboxamide] | 100 to 1000 |
| N#CN1CC[C@@H](NC(=O)N2CCCN(Cc3c(F)cccc3Cl)CC2)C1 [Example 137, (R)-4-(2-chloro-6-fluorobenzyl)-N-(1-cyanopyrrolidin-3-yl)-1,4-diazepane-1-carboxamide] | 100 to 1000 |
| N#CN1CC[C@@H](NC(=O)N2CCCN(Cc3ccccc3)CC2)C1 [Example 138, (R)-4-benzyl-N-(1-cyanopyrrolidin-3-yl)-1,4-diazepane-1-carboxamide] | 100 to 1000 |
| N#CN1CC[C@@H](NC(=O)N2CCc3c([nH]c4ccccc34)C2)C1 [Example 139, (R)-N-(1-cyanopyrrolidin-3-yl)-1,3,4,9-tetrahydro-2H-pyrido[3,4-b]indole-2-carboxamide] | 100 to 1000 |
| C[C@@H]1CN(c2cc(C(=O)N[C@@H]3CCN(C#N)C3)c(F)cn2)C[C@H](C)O1 [Example 140, N-((R)-1-cyanopyrrolidin-3-yl)-2-((2S,6R)-2,6-dimethylmorpholino)-5-fluoroisonicotinamide] | 100 to 1000 |
| N#CN1CC[C@@H](NC(=O)c2cc(N3Cc4ccccc4C3)ncc2F)C1 [Example 141, (R)-N-(1-cyanopyrrolidin-3-yl)-5-fluoro-2-(isoindolin-2-yl)isonicotinamide] | 100 to 1000 |
| N#CN1CC[C@@H](NC(=O)c2ccc(Nc3ncccn3)c(F)c2)C1 [Example 142, (R)-N-(1-cyanopyrrolidin-3-yl)-3-fluoro-4-(pyrimidin-2-ylamino)benzamide] | < 100 |
| N#CN1CC[C@@H](NC(=O)c2ccc(N3CCCC3)cc2F)C1 [Example 143, (R)-N-(1-cyanopyrrolidin-3-yl)-2-fluoro-4-(pyrrolidin-1-yl)benzamide] | < 100 |
| N#CN1CC[C@@H](NC(=O)c2cc(F)c(N3CCCC3)cc2F)C1 [Example 145, (R)-N-(1-cyanopyrrolidin-3-yl)-2,5-difluoro-4-(pyrrolidin-1-yl)benzamide] | < 100 |
| CO[C@@H]1CCN(c2ccc(C(=O)N[C@@H]3CCN(C#N)C3)c(F)c2)C1 [Example 146, N-((R)-1-cyanopyrrolidin-3-yl)-2-fluoro-4-((R)-3-methoxypyrrolidin-1-yl)benzamide] | 100 to 1000 |
| COc1cc(C(=O)N[C@@H]2CCN(C#N)C2)ccc1Nc1ncccn1 [Example 147, (R)-N-(1-cyanopyrrolidin-3-yl)-3-methoxy-4-(pyrimidin-2-ylamino)benzamide] | 100 to 1000 |
| COc1cc(C(=O)N[C@@H]2CCN(C#N)C2)ccc1Nc1nccc(C)n1 [Example 148, (R)-N-(1-cyanopyrrolidin-3-yl)-3-methoxy-4-((4-methylpyrimidin-2-yl)amino)benzamide] | 100 to 1000 |
| COc1ccnc(Nc2ccc(C(=O)N[C@@H]3CCN(C#N)C3)c(F)c2)n1 [Example 149, (R)-N-(1-cyanopyrrolidin-3-yl)-2-fluoro-4-((4-methoxypyrimidin-2-yl)amino)benzamide] | < 100 |
| Cc1cc(C(=O)N[C@@H]2CCN(C#N)C2)nn1C(C)c1ccccc1 (stereo partly drawn) [Example 150, N-((R)-1-cyanopyrrolidin-3-yl)-5-methyl-1-(1-phenylethyl)-1H-pyrazole-3-carboxamide] | 100 to 1000 |
| Cc1cc(C(=O)N[C@@H]2CCN(C#N)C2)nn1Cc1ccccn1 [Example 151, (R)-N-(1-cyanopyrrolidin-3-yl)-5-methyl-1-(pyridin-2-ylmethyl)-1H-pyrazole-3-carboxamide] | 100 to 1000 |
